Results from publication PMC6443933, “Antagonizing Retinoic Acid-Related-Orphan Receptor Gamma Activity Blocks the T Helper 17/Interleukin-17 Pathway Leading to Attenuated Pro-inflammatory Human Keratinocyte and Skin Responses” (Frontiers in Immunology, 2019).

Experiments:
[1] = tested on: HUT78 T-cells stably expressing full-length eGFP-RORγt; experiment: IL-17A / IL-2 production by RORγt transduced HUT78 T-cell line; assay type: cell-based, human
naive human CD4+ T-cells = experiment: Th17 polarization of naive CD4+ T-cells, IL-17A ELISA; assay type: cell-based; settings: T-cell, 168 h, Th17 differentiation 7 days, read-out: IC50, IL-17A secretion
Method: (§1) Total, naive and memory CD4^+ T cells were isolated from Peripheral blood mononuclear cells (PBMCs) from healthy volunteers by density gradient centrifugation using Ficoll Paque (GE). Total, naive or memory CD4^+ T-cells were prepared by immunomagnetic separation using the respective CD4^+ T-cell enrichment kits resulting in untouched highly purified subsets (EasySep™, Stem Cell). Purity was assessed by flow cytometry and was between 95 and 98% for the total CD4^+ T-cells. The purity of naive (CD45RA^+CD45RO^−) and memory (CD45RA^−CD45RO^+) CD4^+T-cells ranged between 95 and 98%, respectively. For T-cell stimulation experiments, cells were treated as previously published ([44]). Briefly, T-cells were stimulated with plate-bound monoclonal antibodies against CD3 (1 μg/ml, clone OKT-3, BioXcell) and CD28 (1 μg/ml, clone CD28.2, BioLegend). For Th17 polarization assays, IL-6 (20 ng/ml), TGF-β1 (5 ng/ml), IL-1β (10 ng/ml), and IL-23 (10 ng/ml) were added. For Th1 polarization assays, IL-12 (10 ng/ml) and anti-IL-4 antibody (5 μg/ml), for Th2 polarizations, IL-4 (10 ng/ml) and anti-IFN-γ antibody (5 μg/ml) were added. For Th0 polarization assays, cells were only stimulated with CD3 and CD28 antibodies. […] Cytokine concentrations were quantified by ELISA according to the manufacturer's instructions (eBioscience or BioLegend).

total CD4+ T-cells = experiment: Intracellular FACS of IL-17A/IFN-γ-producing CD4+ T-cells after Th17 polarization; assay type: cell-based, human; settings: 3-day Th17 differentiation
Method: as §1, with “or BioLegend). […]” for “or BioLegend).”

HaCaT keratinocytes = experiment: IL-17-driven HaCaT keratinocyte responses (Th17 supernatants or spiked cytokines), qRT-PCR; assay type: cell-based, human; settings: supernatants of Th17 cells treated with 10 μM vs 0.13 nM, 24 h
Method: The HaCaT keratinocyte cell line was purchased from AddexBio and was maintained in RPMI 1640 medium supplemented with Glutamax, Penicillin/Streptomycin (all from Gibco) and 10% FCS (PAA). Normal primary human epidermal keratinocytes (NHEKs) were purchased from Lonza and PromoCell, respectively. Cells were cultured in Keratinocyte basal growth medium (KBM; Lonza) containing KGM2 growth supplements including insulin, human epidermal growth factor, bovine pituitary extract, hydrocortisone, epinephrine, transferrin, and gentamicin/amphotericin B (Lonza). HaCaT cells were incubated in a 96-well-microtiter plate (2 × 10^4 cells/well) with Th17 cytokine-containing supernatants obtained from total CD4^+ T-cells that were polarized for 72 h in the presence of anti-CD3/CD28 antibodies and a Th17 polarization cocktail as described above. […] Cytokine concentrations in supernatants were determined from representative experiments and they contained approximately 150 pg/ml or 600 pg/ml of IL-17 in 10 μM or in 0.13 nM treated samples, respectively. The TNF-α concentration was similar in supernatants exposed to low or high Cpd A concentrations and was 4 ng/ml. To study the impact of the IL-17 cytokine, IL-17 in the supernatants and in the spike-in cocktails was neutralized by a 0.5 h pre-incubation with an IL-17-specific antibody [0.75 μg/ml; Secukinumab (Cosentyx®, Novartis)]. All cultures were incubated in triplicates and after a 24 h incubation period, HaCaT cells (6 × 10^4 cells/sample) and NHEKs (1 × 10^5 cells/sample) were harvested and further processed for qRT-PCR analysis.
Total RNA from human Th17 cells (6 × 10^5 cells), RORγt-RORE HUT78 cells (4 × 10^5 cells) and HaCaT cells (6 × 10^4 cells) was extracted using RNeasy kit including a DNAse I digestion step according to the manufacturer‘s protocol (Qiagen). Frozen skin biopsies (8 mm punches) were resuspended in RLT buffer (Qiagen) containing 1% β-mercaptoethanol and homogenized using a Precellys-Cryolys device (Bertin Instruments) according to the manufacturer's instructions. cDNAs were prepared with the High Capacity cDNA Reverse Transcription Kit (Applied Biosystems). Quantitative RT-PCR analysis was performed using a TaqManViiA7 (Applied Biosystems). All runs were accompanied by the internal control gene human β-glucoronidase (Gus) (431088E). The samples were run in triplicate or in hexaplicate and normalized to Gus using the ΔΔCt method to provide arbitrary units representing relative expression levels. The following Taqman probes were used for RT-PCR (Thermo Scientific): RORC (Hs01076112_m1), IL17A (Hs00936345_m1), IL22 (Hs01574154_m1), IL26 (Hs00218189_m1), IL23R (Hs00332759_m1), CCR6 (Hs00218189_m1), NFKBIZ (Hs00355476_m), DEFB4A (Hs00823638_m1), IL36G (Hs00219742_m1), and CCL20 (Hs00355476_m1).

RORγt = experiment: Binding of transcription/co-factors to RORγt or RORE oligonucleotides after treatment (data not shown); assay type: cell-based

Cc1ccc(C(=O)Nc2cn3ccnc3c(CN3CCN(c4noc(C(C)(C)C)n4)[C@@H](C)C3)c2C)cn1 [Cpd A, (S)-N-(8-((4-(5-(tert-butyl)-1,2,4-oxadiazol-3-yl)-3-methylpiperazin-1-yl)methyl)-7-methylimidazo[1,2-a]pyridin-6-yl)-6-methylnicotinamide]
IC50 ([1]; Homo sapiens, PMA plus anti-CD3, 48 h, ELISA): 27 nM | IL-2 cytokine production ([1]; PMA plus anti-CD3, 48 h, ELISA): not affected | attenuation of IL-17A production ([1]; concentration-dependent): complete attenuation | IC50 (naive human CD4+ T-cells): 15 nM | frequencies of IFN-γ+ cells (total CD4+ T-cells): not affected | frequencies of IL-17A+ cells within the CD4+ T-cell population (total CD4+ T-cells): reduced | IL-17 signature genes (NFKBIZ, DEFB4A, CCL20, IL36G) in HaCaT (HaCaT keratinocytes): marked reduction | binding of TAZ, steroid receptor co-activators, p300, HIF-1α, Runx to RORγt or RORE oligonucleotides (RORγt): remained intact
